Experimental data reported in PubChem BioAssay AID1195 (EPA DSSTox, 2008).

System: human maximum recommended daily dose, FDA database
Test: DSSTox (FDAMDD) FDA Maximum (Recommended) Daily Dose Database
Details: active compounds read low
Summary of the method: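 MRDD values come from clinical trials with daily oral dosing, usually for 3–12 months, for the average adult, in mg/day converted to mg/kg-bw/day assuming 60 kg. Antineoplastic mg/m2 doses are divided by 37. Activity score maps log10(1/MRDD mmol) onto 1–100.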

[1] = TherapeuticCategory: antibacterial
[2] = TherapeuticCategory: antiulcerative
[3] = TherapeuticCategory: diuretic, antihypertensive
[4] = TherapeuticCategory: bronchodilator
[5] = TherapeuticCategory: diagnostic aid
[6] = TherapeuticCategory: antihypertensive, diuretic

Question: For C=CCC1(CC(C)C)C(=O)NC(=O)NC1=O, which maximum recommended daily dose (mmol/kg-bw/day) (TherapeuticCategory: sedative, hypnotic) is on record?
Answer: 0.0223

Question: With CNC[C@H](O)c1ccc(O)c(O)c1 as the compound, how does the maximum recommended daily dose (mmol/kg-bw/day) (TherapeuticCategory: adrenergic, bronchodilator, mydriatic, antiglaucoma) read?
Answer: 9.12e-05

Question: With COC(=O)[C@H]1[C@H]2C[C@@H]3c4[nH]c5cc(OC)ccc5c4CCN3C[C@H]2C[C@@H](OC(=O)c2cc(OC)c(OC)c(OC)c2)[C@@H]1OC as the compound, how does the maximum recommended daily dose (mmol/kg-bw/day) (TherapeuticCategory: antihypertensive) read?
Answer: 1.64e-05

Question: How did the maximum recommended daily dose (mmol/kg-bw/day) (TherapeuticCategory: prohormone) turn out when NC(=O)[C@@H]1CCCN1C(=O)[C@H](Cc1cnc[nH]1)NC(=O)[C@@H]1CCC(=O)N1 was run?
Answer: 2.3e-05

Question: CSc1ccc2c(c1)N(CCC1CCCCN1C)c1ccccc1S2 (stereo not drawn) was tested. Which maximum recommended daily dose (mmol/kg-bw/day) (TherapeuticCategory: antipsychotic) did it give?
Answer: 0.0359

Question: CC1(C)S[C@@H]2[C@H](NC(=O)C3(N)CCCCC3)C(=O)N2[C@H]1C(=O)O was tested. Which maximum recommended daily dose (mmol/kg-bw/day) [1] did it give?
Answer: 0.0975

Question: Which maximum recommended daily dose (mmol/kg-bw/day) (TherapeuticCategory: none) does the source give for N[C@@H](Cc1cnc[nH]1)C(=O)O here?
Answer: 0.645

Question: Which maximum recommended daily dose (mmol/kg-bw/day) [2] does the source give for COc1ccnc(CS(=O)c2nc3ccc(OC(F)F)cc3[nH]2)c1OC (stereo not drawn) here?
Answer: 0.00174

Question: How did the maximum recommended daily dose (mmol/kg-bw/day) [2] turn out when CC1(C)[C@@H](OC(=O)CCC(=O)O)CC[C@]2(C)[C@H]3C(=O)C=C4[C@@H]5C[C@@](C)(C(=O)O)CC[C@]5(C)CC[C@@]4(C)[C@]3(C)CC[C@@H]12 was run?
Answer: 0.00876

Question: How did the maximum recommended daily dose (mmol/kg-bw/day) (TherapeuticCategory: anti inflammatory) turn out when CCCCC1C(=O)N(c2ccccc2)N(c2ccccc2)C1=O was run?
Answer: 0.0324

Question: How did the maximum recommended daily dose (mmol/kg-bw/day) [3] turn out when CN1C(CCl)Nc2cc(Cl)c(S(N)(=O)=O)cc2S1(=O)=O (stereo not drawn) was run?
Answer: 0.000464

Question: O=C(O)C(Cl)Cl was tested. Which maximum recommended daily dose (mmol/kg-bw/day) (TherapeuticCategory: caustic, keratolytic, topical astringent) did it give?
Answer: 0.517

Question: How did the maximum recommended daily dose (mmol/kg-bw/day) (TherapeuticCategory: cardiotonic) turn out when C[C@H]1O[C@@H](O[C@H]2[C@@H](O)C[C@H](O[C@H]3[C@@H](O)C[C@H](O[C@H]4CC[C@@]5(C)[C@H](CC[C@@H]6[C@@H]5CC[C@]5(C)[C@@H](C7=CC(=O)OC7)CC[C@]65O)C4)O[C@@H]3C)O[C@@H]2C)C[C@H](O)[C@@H]1O was run?
Answer: 2.61e-08

Question: CC(C)NCC(O)c1ccc(O)c(O)c1 (stereo not drawn) was tested. Which maximum recommended daily dose (mmol/kg-bw/day) [4] did it give?
Answer: 0.000791

Question: CNC(=O)c1c(I)c(NC(C)=O)c(I)c(C(=O)O)c1I was tested. Which maximum recommended daily dose (mmol/kg-bw/day) [5] did it give?
Answer: 0.163

Question: For CO[C@H]1/C=C/O[C@@]2(C)Oc3c(C)c(O)c4c(O)c(c(/C=N/N5CCN(C)CC5)c(O)c4c3C2=O)NC(=O)/C(C)=C\C=C\[C@H](C)[C@H](O)[C@@H](C)[C@@H](O)[C@@H](C)[C@H](OC(C)=O)[C@@H]1C, which maximum recommended daily dose (mmol/kg-bw/day) [1] is on record?
Answer: 0.0243

Question: How did the maximum recommended daily dose (mmol/kg-bw/day) [6] turn out when NS(=O)(=O)c1cc2c(cc1C(F)(F)F)NCNS2(=O)=O was run?
Answer: 0.0101

Question: CCN(CCCCOC(=O)c1ccc(OC)c(OC)c1)C(C)Cc1ccc(OC)cc1 (stereo not drawn) was tested. Which maximum recommended daily dose (mmol/kg-bw/day) (TherapeuticCategory: antispasmodic) did it give?
Answer: 0.0157

Question: With CCCC(=O)Nc1c(I)cc(I)c(CC(CC)C(=O)O)c1I (stereo not drawn) as the compound, how does the maximum recommended daily dose (mmol/kg-bw/day) [5] read?
Answer: 0.0754

Question: For CC(=O)OCC1=C(C(=O)O)N2C(=O)[C@@H](NC(=O)[C@H](N)c3ccccc3)[C@H]2SC1, which maximum recommended daily dose (mmol/kg-bw/day) [1] is on record?
Answer: 0.0821

Question: With Cn1c(=O)c2c(ncn2CCO)n(C)c1=O as the compound, how does the maximum recommended daily dose (mmol/kg-bw/day) [4] read?
Answer: 0.0372

Question: O=C1C(CCS(=O)c2ccccc2)C(=O)N(c2ccccc2)N1c1ccccc1 (stereo not drawn) was tested. Which maximum recommended daily dose (mmol/kg-bw/day) (TherapeuticCategory: uricosuric) did it give?
Answer: 0.0329

Question: Which maximum recommended daily dose (mmol/kg-bw/day) (TherapeuticCategory: hepatoprotectant) does the source give for C[N+](C)(C)CC(=O)[O-] here?
Answer: 0.0711

Question: How did the maximum recommended daily dose (mmol/kg-bw/day) [1] turn out when CO[C@H]1C[C@H](O[C@H]2[C@H](C)[C@@H](O[C@@H]3O[C@H](C)C[C@H](N(C)C)[C@H]3OC(C)=O)[C@@H](C)C[C@]3(CO3)C(=O)[C@H](C)[C@@H](OC(C)=O)[C@@H](C)[C@@H](C)OC(=O)[C@@H]2C)O[C@@H](C)[C@@H]1OC(C)=O was run?
Answer: 0.0409

Question: For CNS(=O)(=O)Cc1ccc2[nH]cc(CCN(C)C)c2c1, which maximum recommended daily dose (mmol/kg-bw/day) (TherapeuticCategory: antimigraine) is on record?
Answer: 0.000677

Question: CC(C)CC1Nc2cc(Cl)c(S(N)(=O)=O)cc2S(=O)(=O)N1 (stereo not drawn) was tested. Which maximum recommended daily dose (mmol/kg-bw/day) [3] did it give?
Answer: 0.000707

Question: How did the maximum recommended daily dose (mmol/kg-bw/day) (TherapeuticCategory: anesthetic) turn out when Cc1ncc2n1-c1ccc(Cl)cc1C(c1ccccc1F)=NC2 was run?
Answer: 0.000256

Question: With CC(C)N=C(N)/N=C(\N)Nc1ccc(Cl)c(Cl)c1 as the compound, how does the maximum recommended daily dose (mmol/kg-bw/day) (TherapeuticCategory: antimalarial) read?
Answer: 0.00116

Question: How did the maximum recommended daily dose (mmol/kg-bw/day) (TherapeuticCategory: anorexic) turn out when CCN(CC)C(C)C(=O)c1ccccc1 (stereo not drawn) was run?
Answer: 0.00609

Question: How did the maximum recommended daily dose (mmol/kg-bw/day) (TherapeuticCategory: antidepressant) turn out when CN1Cc2c(N)cccc2C(c2ccccc2)C1 (stereo not drawn) was run?
Answer: 0.014

Question: How did the maximum recommended daily dose (mmol/kg-bw/day) (TherapeuticCategory: acidulant) turn out when CC(O)C(=O)O (stereo not drawn) was run?
Answer: 1.11

Question: With CC1CCCC(C)N1NC(=O)c1ccc(Cl)c(S(N)(=O)=O)c1 (stereo not drawn) as the compound, how does the maximum recommended daily dose (mmol/kg-bw/day) [6] read?
Answer: 0.00289

Question: Which maximum recommended daily dose (mmol/kg-bw/day) (TherapeuticCategory: anti inflammatory, antiarthritic) does the source give for Cc1ccc(-c2cc(C(F)(F)F)nn2-c2ccc(S(N)(=O)=O)cc2)cc1 here?
Answer: 0.0175
